Data from ChEMBL document CHEMBL1146151, “Polyoxometalates--a new class of potent ecto-nucleoside triphosphate diphosphohydrolase (NTPDase) inhibitors” (Bioorg Med Chem Lett, 2006).

Molecular target: T1, Ectonucleoside triphosphate diphosphohydrolase 2 (Rattus norvegicus) (UniProt O35795)
T1 sequence (whole entry): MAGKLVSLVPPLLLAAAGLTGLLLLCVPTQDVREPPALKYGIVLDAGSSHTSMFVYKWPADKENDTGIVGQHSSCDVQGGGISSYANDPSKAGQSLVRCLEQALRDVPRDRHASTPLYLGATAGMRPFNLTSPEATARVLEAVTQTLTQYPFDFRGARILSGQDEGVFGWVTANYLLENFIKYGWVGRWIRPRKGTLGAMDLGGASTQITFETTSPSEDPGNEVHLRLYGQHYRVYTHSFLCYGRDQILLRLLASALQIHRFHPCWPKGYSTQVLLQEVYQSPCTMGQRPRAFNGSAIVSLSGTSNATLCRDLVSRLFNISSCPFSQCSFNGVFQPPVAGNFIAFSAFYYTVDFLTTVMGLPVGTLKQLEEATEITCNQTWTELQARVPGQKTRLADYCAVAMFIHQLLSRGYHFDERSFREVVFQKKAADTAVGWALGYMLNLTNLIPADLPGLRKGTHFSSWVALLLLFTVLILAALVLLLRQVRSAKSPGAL
Settings: CHO, 1 mM
Description: Inhibition of rat recombinant NTPDase2 expressed in CHO cells at 1 mM

**Q.** For CCN(CC)c1ncnc2c1ncn2[C@@H]1O[C@H](COP(=O)(O)OP(=O)(O)C(Br)(Br)P(=O)(O)O)[C@@H](O)[C@H]1O, which inhibition is on record?
**A.** 50%
